{
  "source": "patent US20080014152A1",
  "about": "“INTRANASAL DELIVERY OF C[…] THE […] AND INTO THE BRAIN” (priority 2006, published 2008)",
  "origin": "cited, not measured here",
  "key": {"[1]": {"conditions": "Culmsee 1999"}, "NGF protein": {"test_system": "NGF protein", "conditions": "Zhu 1998; intraperitoneal"}, "[2]": {"conditions": "Rami 2003; after transient global ischemia"}, "[3]": {"conditions": "Culmsee 2004"}, "NGF mRNA": {"test_system": "NGF mRNA", "conditions": "Follesa 1993; 10 mg/kg intraperitoneal, within 5 hours of administration"}, "[4]": {"conditions": "McIntyre 2005; infusions into the amygdala"}, "[5]": {"conditions": "Sleeper 2002; chronic systemic administration"}, "hippocampal cells": {"test_system": "hippocampal cells", "conditions": "Zhu 2001"}, "astrocytes": {"test_system": "astrocytes", "conditions": "Abdulla 2005; astrocytes treated with LPS"}, "hippocampal cultures": {"test_system": "hippocampal cultures", "conditions": "Semkova 1996; in vitro exposure of hippocampal cultures"}, "β2 adrenergic receptors": {"molecular_target": "T1, β2 adrenergic receptors (Rattus norvegicus, UniProt P10608)", "T1 construct": "host or cells: rat cerebral cortex (in vivo)", "T1 sequence (P10608 whole entry)": "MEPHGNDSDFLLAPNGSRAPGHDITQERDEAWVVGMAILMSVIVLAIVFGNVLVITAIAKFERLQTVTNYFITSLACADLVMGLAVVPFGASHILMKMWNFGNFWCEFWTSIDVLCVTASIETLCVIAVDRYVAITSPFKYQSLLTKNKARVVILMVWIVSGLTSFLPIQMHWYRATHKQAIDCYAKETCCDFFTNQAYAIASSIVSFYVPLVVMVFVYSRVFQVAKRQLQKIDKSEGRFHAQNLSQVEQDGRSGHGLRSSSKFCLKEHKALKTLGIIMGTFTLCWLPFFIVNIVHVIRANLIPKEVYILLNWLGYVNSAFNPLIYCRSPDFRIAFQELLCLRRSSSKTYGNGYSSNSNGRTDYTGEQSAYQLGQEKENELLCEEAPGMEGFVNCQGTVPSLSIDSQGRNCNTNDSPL", "conditions": "Colangelo 1998; stimulation of β2 adrenergic receptors"}, "U937 cell": {"test_system": "U937 cell", "conditions": "Izeboud 1999; U937 cells stimulated with LPS"}},
  "data": [
    {"smiles": "CC(C)(C)NCC(O)c1cc(Cl)c(N)c(Cl)c1", "note": "(stereo not drawn) [clenbuterol]", "values": [
      {"measurement": "cortical infarct volume", "setting": "[1]; 0.01-0.5 mg/kg, rats, measured 7 days after permanent occlusion of the middle cerebral artery", "result": "reduced cortical infarct volume"},
      {"measurement": "blood pressure", "setting": "[1]; dosages greater than 1 mg/kg", "result": "decrease in blood pressure"},
      {"measurement": "cerebroprotective effect", "setting": "[1]; dosages greater than 1 mg/kg", "result": "no cerebroprotective effect"},
      {"measurement": "plasma glucose level", "setting": "[1]; dosages greater than 1 mg/kg", "result": "increase in plasma glucose level"},
      {"measurement": "elevation of NGF protein levels in the rat hippocampus", "setting": "NGF protein", "result": 33, "unit": "%"},
      {"measurement": "apoptosis in the rat hippocampus", "setting": "[2]", "result": "attenuates apoptosis"},
      {"measurement": "neuroprotective capacity in experimental models of stroke", "setting": "[3]", "result": "neuroprotective capacity"},
      {"measurement": "TGF-β immunoreactivity", "setting": "TGF-β; Zhu 2001, 0.5 mg/kg, as early as 3 hours after administration, elevated up to 2 days", "result": "increase TGF-β immunoreactivity"},
      {"measurement": "induction of TGF-β production in neurons", "setting": "TGF-β; in vivo", "result": "2-3 ×"},
      {"measurement": "increase in NGF mRNA in the cerebral cortex", "setting": "NGF mRNA", "result": "2-3 fold"},
      {"measurement": "increase in bFGF mRNA in the cerebral cortex, hippocampus and cerebellum", "setting": "bFGF mRNA; Follesa 1993, 10 mg/kg intraperitoneal, within 5 hours of administration", "result": "2-3 fold"},
      {"measurement": "induction of bFGF production in neurons", "setting": "bFGF mRNA; in vivo", "result": "2-3 ×"},
      {"measurement": "memory", "setting": "[4]", "result": "enhance memory"},
      {"measurement": "side effects, cardiac function", "setting": "[5]", "result": "negative alteration of cardiac function"},
      {"measurement": "neuroprotection of hippocampal cells after ischemia", "setting": "hippocampal cells", "result": "provided neuroprotection"},
      {"measurement": "protection from inflammation in astrocytes", "setting": "astrocytes", "result": "provides protection from inflammation"},
      {"measurement": "NGF content in the culture medium", "setting": "hippocampal cultures", "result": "enhanced significantly"},
      {"measurement": "NGF biosynthesis in the rat cerebral cortex", "setting": "β2 adrenergic receptors", "result": "increases NGF biosynthesis"},
      {"measurement": "IL-6 production", "setting": "U937 cell", "result": "decreasing"},
      {"measurement": "IL-10 production", "setting": "U937 cell", "result": "increase IL-10 production"},
      {"measurement": "TNF-α production", "setting": "U937 cell", "result": "decreasing"}
    ]}
  ]
}
